Assay results as given in patent US5358951A, “Angiotensin II receptor blocking 2, 3, 6 substituted quinazolinones” (American Cyanamid Company, priority 1993, dated 1994).
Structures can show the parent of a compound that is named as a salt. Where two headings read alike, the source gives them in different places.

Target: T1, Angiotensin II Receptor (Bos taurus, UniProt P25104)
T1 construct: fresh adrenal glands received on crushed ice are cleaned of fatty tissues; from tissue; host or cells: beef adrenal cortex, microsomal membranes (100,000×g pellet)
T1 sequence (P25104 1-359): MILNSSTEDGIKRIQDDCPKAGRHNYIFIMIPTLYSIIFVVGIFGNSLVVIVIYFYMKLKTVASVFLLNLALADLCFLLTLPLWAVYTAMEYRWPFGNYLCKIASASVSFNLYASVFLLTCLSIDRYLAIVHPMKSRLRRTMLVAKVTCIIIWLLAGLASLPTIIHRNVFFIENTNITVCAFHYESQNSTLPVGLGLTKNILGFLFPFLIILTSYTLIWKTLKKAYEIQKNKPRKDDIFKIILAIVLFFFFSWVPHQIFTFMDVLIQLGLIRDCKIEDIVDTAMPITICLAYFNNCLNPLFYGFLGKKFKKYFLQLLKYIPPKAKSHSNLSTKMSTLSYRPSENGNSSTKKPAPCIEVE
Experiment: Receptor Binding Assay: displacement of [^125 I](Sar^1,Ile^8)AngII
Type: beef (adrenal cortex microsomal membranes)
Source text: Beef adrenals are obtained from a local slaughter house (Maxwell-Cohen). [^125 […]. 2200 Ci/mmole, is purchased from Dupont (NEN®, Boston, Mass.). All unlabeled AngII analogs, Dimethylsulfoxide (DMSO), nucleotides, bovine serum albumin (BSA) are purchased from Sigma Chemical Co., St. Louis, Mo. U.S.A. […] Approximately sixteen (16) to twenty (20) beef adrenal glands are processed as follows: fresh adrenal glands received on crushed ice are cleaned of fatty tissues and the tough membranes encapsulating the glands are removed and discarded. The brownish tissue forming the adrenal cortex is scraped off and finely minced with scissors before homogenization. Care is taken to avoid contamination with medullary tissue during dissection. The scraped cortices are suspended in twenty volumes of an ice-cold buffer medium consisting of 10 mM Tris.HCl (pH 7.4 at 22° C.) and containing 1.0 mM EDTA and 0.2M sucrose. Unless otherwise indicated, all subsequent operations are done at 4° C. […] The homogenate is centrifuged first at low speed (3,000×g) for 10 min. […] This P2 pellet is discarded and the liquid phase is carefully decanted off in clean centrifuge tubes and recentrifuged at high speed (100,000×g) for 60 min. The translucent final pellet is harvested and combined in a small volume (20-50.0 ml) of 50.0 mM Tris.HCl buffer, pH 7.2. A 100 ul aliquot is withdrawn and the protein content of the preparation is determined by the Lowry's method (Lowry, O. H., Rosebrough, […]. and Randall, R. J., Protein measurement with Folin phenol reagent. J. Biol. Chem., 48, 265-275, 1951). The pelleted membrane is reconstituted in 50.0 mM Tris.HCl buffer containing 0.1 mM of phenylmethylsulfonyl fluoride (PMSF) to give approximately a protein concentration of 2.5 mg per ml of tissue suspension. […] In competition studies, experimental compounds are diluted in dimethylsulfoxide (DMSO) and added in 20 ul to wells before the introduction of tissue membranes. […] Assays are performed in triplicate. The wells are left undisturbed for 60 min. at room temperature. Following incubation, all wells are harvested at once with a Brandel® Harvester especially designed for a 96 well plate (Brandel® Biomedical Research & Development Labs. Inc., Gaithersburg, Md., U.S.A.). The filter discs are washed with 10×1.0 ml of cold 0.9% NaCl to remove unbound ligand. […] This method is routinely used. The filters are removed from the filter grid and counted in a Parkard® Cobra Gamma Counter for 1 min. (Packard Instrument Co., Downers Grove, Ill., U.S.A.). The binding data are analyzed by the non-linear interactive "LUNDON-1" program (LUNDON SOFTWARE Inc., Cleveland, Ohio U.S.A.).

[1] = continuation of Table I headed BIOLOGICAL DATA, read-out: Biological Data
[2] = read-out: Angiotensin II Receptor Binding IC50

SMILES	IC50 [1]	IC50 [2]
CCCCc1nc2ccc([C@@]3(C)C[C@@H]4CCCN4O3)cc2c(=O)n1Cc1ccc(-c2ccccc2-c2nnn[nH]2)cc1 (relative stereo) [Example 73, Cis-2-Butyl-6-(hexahydro-2-methylpyrrolo[1,2-b]isoxazol-2-yl)-3-[[2'-(1H-(tetrazol-5-yl)[1,1'-biphenyl-4-yl]methyl]-4(3H)-quinazolinone sodium salt]	31 nM	–
CCCCc1nc2ccc(C3(C)CC4c5ccccc5CCN4O3)cc2c(=O)n1Cc1ccc(-c2ccccc2-c2nnn[nH]2)cc1 (stereo not drawn) [Example 64, Cis and Trans-2-Butyl-6-(1,5,6,10b-tetrahydro-2-methyl-2H-isoxazolo[3,2-a]isoquinolin-2-yl)-3-[[2'-(1H-tetrazol-5-yl][1,1'-biphenyl]-4-yl]methyl]-4(3H)-quinazolinone]	–	94 nM
CCCCc1nc2ccc(C3(C(=O)OC)CC4CCCN4O3)cc2c(=O)n1Cc1ccc(-c2ccccc2-c2nnn[nH]2)cc1 (mixture of isomers) [Example 78, Trans(+/-)-Methyl-2-[2-butyl-3,4-dihydro-4-oxo-3-[[2'-(1H-tetrazol-5-yl)[1,1'-biphenyl]-4-yl]methyl-6-quinazolinyl]hexahydropyrrolo[1,2-b]isoxazole-2-carboxylate]	144 nM	–
CCCCc1nc2ccc([C@@]3(CC)C[C@@H]4CCCN4O3)cc2c(=O)n1Cc1ccc(-c2ccccc2-c2nnn[nH]2)cc1 (relative stereo) [Example 71, Cis-2-butyl-6-(2-ethylhexahydropyrrolo[1,2b]isoxazol-2-yl)-3-[[2'-[1-(1H-tetrazol-5-yl)][1,1'-biphenyl]-4-yl]methyl]-4(3H)-quinazolinone]	–	63 nM
CCCCc1nc2ccc([C@@H]3C[C@H]4c5ccccc5CCN4O3)cc2c(=O)n1Cc1ccc(-c2ccccc2-c2nnn[nH]2)cc1 (relative stereo) [Example 63, Cis-2-Butyl-6-(1,5,6,10b-tetrahydro-2H-isoxazolo[3,2-a]isoquinolin-2-yl)-3-[[2'-(1H-tetrazol5-yl)[1,1'-biphenyl]-4-yl]methyl]-4(3H)-quinazolinone]	–	54 nM
